Patent US12721831B2, “Tetrahydrocurcuminoid-metal complexes, manufacturing methods thereof, and uses thereof” (Probioticsmart, LLC, priority 2020, dated 2026)

What was measured:
[1] = tested on: influenza varieties; details: laboratory cells infected with influenza varieties; cited from earlier work
[2] = DPPH radical scavenging antioxidant assay; assay type: biochemical; details: 0.125-0.50 mg/mL in ethanol, 30 min at RT, 517 nm; ranking among the three
[3] = 1 gram oral, chicken serum, 280 nm and 425 nm
[4] = cited from earlier work

Structure (SMILES) | reduction of viral replication [1] | antioxidant activity (DPPH radical scavenging, FIG. 16) [2] | HPLC peaks in serum at the 2-hour, 4-hour, and 24-hour timepoints [3] | water solubility [4]
COc1cc(/C=C/C(=O)CC(=O)/C=C/c2ccc(O)c(OC)c2)ccc1O [curcumin] | over 90% | – | – | –
COc1cc(CCC(=O)CC(=O)CCc2ccc(O)c(OC)c2)ccc1O [tetrahydrocurcumin] | – | higher antioxidant activity than curcumin but less than the tetrahydrocurcumin-Zn-curcumin | could be seen | not very water soluble
